Results: patent US12252469B2, “Crystalline forms of (E)-N-hydroxy-3-(1-(phenylsulfonyl)indolin-5-yl)acrylamide” (ANBOGEN THERAPEUTICS INC., priority 2023, dated 2025)
One block for each compound: values may come before it.

Assays:
[1] = Solid stability evaluation for 1/2/4 weeks; settings: for HPLC purity change after solid stability / form change after solid stability: all storage conditions;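 on all read-outs here: Solid-state physical and chemical stability tracked by XRPD for form, KF for water content, and HPLC for purity and assay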
Experimental: Type A/B were stored under the conditions of 60° C., 25° C./60% RH, 25° C./92.5% RH and 40° C./75% RH for 1/2/4 weeks for solid stability evaluation. Amorphous was stored under the conditions of 25° C./60% RH and 40° C./75% RH for 1/2/4 weeks for solid stability evaluation. The physical and chemical stability were evaluated by X-ray powder diffraction (XRPD), thermo gravimetric analysis (TGA)/Karl Fischer (KF), differential scanning calorimetry (DSC)/modulated differential I scanning calorimetry (mDSC), high performance liquid chromatography (HPLC) purity and assay, respectively.
XRPD, TGA, DSC and KF in this example are under the same conditions with those described in Example 2.
Agilent 1260 were utilized and detailed chromatographic conditions are listed in

[2] = Competitive slurry, inter-conversion of Type A and Type B; type: physicochemical
[3] = Polymorph characterization: form conversion on drying; type: physicochemical
Experimental: Using ABT-301 Type A (Sample name: ABT-301, CP ID: 826543-01-A) as starting material, a total of 100 polymorph screening experiments were performed, using methods of vapor-solution diffusion, vapor-solid diffusion, slow evaporation, slurry (RT and 50° C.), temperature cycling, slow cooling, anti-solvent addition and grinding.

DVS water uptake = type: physicochemical
Experimental: DVS was measured via a SMS (Surface Measurement Systems) DVS Intrinsic or Intrinsic Plus. The relative humidity at 25° C. were calibrated against deliquescence point of LiCl, Mg(NO3)2 and KCl.

Compound: O=C(/C=C/c1ccc2c(c1)CCN2S(=O)(=O)c1ccccc1)NO [Type A/Type B, (E)-N-hydroxy-3-(1-(phenylsulfonyl)indolin-5-yl) acrylamide]
- Result (form obtained, competitive slurry) ([2]; 2-MeTHF, 50° C., 2 days): Type B
- Result (form obtained, competitive slurry) ([2]; 2-MeTHF, RT, 2 days): Type B + P
- Result (form obtained, competitive slurry) ([2]; Acetone (aw~0), RT, 2 days): Type D
- Result (form obtained, competitive slurry) ([2]; Acetone/H2O (95:5, aw~0.4), RT, 1 day): Type D
- Result (form obtained, competitive slurry) ([2]; Acetone/H2O (605:395, aw~0.8), RT, 1 day): Type D
- Result (form obtained, competitive slurry) ([2]; Acetone/H2O (857:143, aw~0.6), RT, 1 day): Type D
- Result (form obtained, competitive slurry) ([2]; Acetone/H2O (986:14, aw~0.2), RT, 1 day): Type D
- Result (form obtained, competitive slurry) ([2]; H2O, RT, 1 day): Type A
- Result (form obtained, competitive slurry) ([2]; MIBK, 50° C., 2 days): Type B
- Result (form obtained, competitive slurry) ([2]; MIBK, RT, 2 days): Type O
- Result (form obtained, competitive slurry) ([2]; Toluene, 50° C., 8 days): Type B
- Result (form obtained, competitive slurry) ([2]; Toluene, RT, 1 day, without molecular sieve, KF 0.0250 wt %, water activity 0.32): Type A
- Result (form obtained, competitive slurry) ([2]; Toluene, RT, 2 days, with molecular sieve, KF 0.0072 wt %, water activity 0.11): Type B
- Result (form obtained, competitive slurry) ([2]; n-Heptane, 50° C., 8 days): Type B
- Result (form obtained, competitive slurry) ([2]; n-Heptane, RT, 1 day, without molecular sieve, KF 0.0049 wt %, water activity 0.29): Type A
- Result (form obtained, competitive slurry) ([2]; n-Heptane, RT, 2 days, with molecular sieve, KF 0.0003 wt %, water activity 0.02): Type B
- Result (form obtained, competitive slurry) ([2]; t-Butanol, RT, 1 day, water activity 0.06): Type B
- Result (form obtained, competitive slurry) ([2]; t-Butanol/H2O (886:121), RT, 3 days, water activity 0.88): Type A
- Result (form obtained, competitive slurry) ([2]; t-Butanol/H2O (909:10), RT, 1 day, water activity 0.17): Type B
- Result (form obtained, competitive slurry) ([2]; t-Butanol/H2O (962:71), RT, 3 days, water activity 0.71): Type A
- Result (form obtained, competitive slurry) ([2]; t-Butanol/H2O (980:35), RT, 1 day, water activity 0.37): Type A
- Result (form obtained, competitive slurry) ([2]; t-Butanol/H2O (985:30), RT, 3 days, water activity 0.56): Type A

Compound: O=C(/C=C/c1ccc2c(c1)CCN2S(=O)(=O)c1ccccc1)NO [Type P, (E)-N-hydroxy-3-(1-(phenylsulfonyl)indolin-5-yl) acrylamide]
- form conversion on drying ([3]; dried at RT overnight): The sample converted to Type A after dried at RT overnight.

Compound: O=C(/C=C/c1ccc2c(c1)CCN2S(=O)(=O)c1ccccc1)NO [Type Q, (E)-N-hydroxy-3-(1-(phenylsulfonyl)indolin-5-yl) acrylamide]
- form conversion on drying ([3]; dried at RT in open air for 8 days and under vacuum for 16.5 hours): The sample converted to Type M after dried at RT in open

Further lines, with some results ahead:

- Assay ([1]; 25° C./60% RH, 1 week): 91.3%
- Form (XRPD) ([1]; 25° C./60% RH, 1 week): Type A
- HPLC purity ([1]; 25° C./60% RH, 1 week): 99.71 Area %
- Assay ([1]; 25° C./60% RH, 2 weeks): 92.2%
- Form (XRPD) ([1]; 25° C./60% RH, 2 weeks): Type A
- HPLC purity ([1]; 25° C./60% RH, 2 weeks): 99.76 Area %
- Assay ([1]; 25° C./60% RH, 4 weeks): 90.7%
- Form (XRPD) ([1]; 25° C./60% RH, 4 weeks): Type A
- HPLC purity ([1]; 25° C./60% RH, 4 weeks): 99.81 Area %
- Assay ([1]; 40° C./75% RH, 1 week): 91.5%
- Form (XRPD) ([1]; 40° C./75% RH, 1 week): Type A
- HPLC purity ([1]; 40° C./75% RH, 1 week): 99.75 Area %
- Assay ([1]; 40° C./75% RH, 2 weeks): 92.1%
- Form (XRPD) ([1]; 40° C./75% RH, 2 weeks): Type A
- HPLC purity ([1]; 40° C./75% RH, 2 weeks): 99.78 Area %
- Assay ([1]; 40° C./75% RH, 4 weeks): 90.6%
- Form (XRPD) ([1]; 40° C./75% RH, 4 weeks): Type A
- HPLC purity ([1]; 40° C./75% RH, 4 weeks): 99.84 Area %
- Assay ([1]; Initial): 91.5%
- Form (XRPD) ([1]; Initial): Amorphous
- HPLC purity ([1]; Initial): 99.84 Area %
- HPLC purity change after solid stability ([1]; 4 weeks): no obvious HPLC purity change
- form change after solid stability ([1]; 4 weeks): converted to Type A
Compound: O=C(/C=C/c1ccc2c(c1)CCN2S(=O)(=O)c1ccccc1)NO [Amorphous, (E)-N-hydroxy-3-(1-(phenylsulfonyl)indolin-5-yl) acrylamide]

- Assay ([1]; 25° C./60% RH, 1 week): 97.8%
- Form (XRPD) ([1]; 25° C./60% RH, 1 week): Type B
- HPLC purity ([1]; 25° C./60% RH, 1 week): 99.85 Area %
- Assay ([1]; 25° C./60% RH, 2 weeks): 96.8%
- Form (XRPD) ([1]; 25° C./60% RH, 2 weeks): Type B
- HPLC purity ([1]; 25° C./60% RH, 2 weeks): 99.85 Area %
- Assay ([1]; 25° C./60% RH, 4 weeks): 98.2%
- Form (XRPD) ([1]; 25° C./60% RH, 4 weeks): Type B
- HPLC purity ([1]; 25° C./60% RH, 4 weeks): 99.86 Area %
- KF (water content) ([1]; 25° C./60% RH, 4 weeks): 2.0658%
- Assay ([1]; 40° C./75% RH, 1 week): 97.6%
- Form (XRPD) ([1]; 40° C./75% RH, 1 week): Type B
- HPLC purity ([1]; 40° C./75% RH, 1 week): 99.85 Area %
- Assay ([1]; 40° C./75% RH, 2 weeks): 97.1%
- Form (XRPD) ([1]; 40° C./75% RH, 2 weeks): Type B
- HPLC purity ([1]; 40° C./75% RH, 2 weeks): 99.84 Area %
- Assay ([1]; 40° C./75% RH, 4 weeks): 97.8%
- Form (XRPD) ([1]; 40° C./75% RH, 4 weeks): Type B
- HPLC purity ([1]; 40° C./75% RH, 4 weeks): 99.85 Area %
- KF (water content) ([1]; 40° C./75% RH, 4 weeks): 0.8491%
- Assay ([1]; 60° C., 1 week): 98.0%
- Form (XRPD) ([1]; 60° C., 1 week): Type B
- HPLC purity ([1]; 60° C., 1 week): 99.84 Area %
- Assay ([1]; 60° C., 2 weeks): 96.5%
- Form (XRPD) ([1]; 60° C., 2 weeks): Type B
- HPLC purity ([1]; 60° C., 2 weeks): 99.80 Area %
- Assay ([1]; 60° C., 4 weeks): 97.9%
- Form (XRPD) ([1]; 60° C., 4 weeks): Type B
- HPLC purity ([1]; 60° C., 4 weeks): 99.76 Area %
- KF (water content) ([1]; 60° C., 4 weeks): 1.9894%
- Assay ([1]; Initial): 96.8%
- Form (XRPD) ([1]; Initial): Type B
- HPLC purity ([1]; Initial): 99.85 Area %
- KF (water content) ([1]; Initial): 0.5387%
- Assay ([1]; […], 1 week): 97.9%
- Form (XRPD) ([1]; […], 1 week): Type B
- HPLC purity ([1]; […], 1 week): 99.85 Area %
- Assay ([1]; […], 2 weeks): 96.8%
- Form (XRPD) ([1]; […], 2 weeks): Type B
- HPLC purity ([1]; […], 2 weeks): 99.85 Area %
- Assay ([1]; […], 4 weeks): 98.1%
- Form (XRPD) ([1]; […], 4 weeks): Type B
- HPLC purity ([1]; […], 4 weeks): 99.85 Area %
- KF (water content) ([1]; […], 4 weeks): 1.8514%
- form change after solid stability ([1]; 4 weeks): no form change
- water activity at which the form was obtained in competitive slurry ([2]; t-Butanol and t-Butanol/H2O, RT, water activity calculated from KF by COSMOlogic): ≤ 0.17
- water uptake (DVS) (DVS water uptake; 25° C./80% RH): 0.1039%
- form change after DVS test (XRPD) (DVS water uptake; after DVS test): no form change
Compound: O=C(/C=C/c1ccc2c(c1)CCN2S(=O)(=O)c1ccccc1)NO [Type B, (E)-N-hydroxy-3-(1-(phenylsulfonyl)indolin-5-yl) acrylamide]
- HPLC purity change after solid stability ([1]; 4 weeks): no form change, or obvious HPLC purity change
